From paper PMC11596062, “Substrate Specificity of ABCB Transporters Predicted by Docking Simulations Can Be Confirmed by Experimental Tests” (Molecules, 2024)

What was measured:
OfABCB2 = tested on: T1, OfABCB2; assay: vanadate-sensitive ATPase assay, phosphate release, Sf9 membranes; type: biochemical, Oncopeltus fasciatus; conditions: substrate-stimulated ATPase; difference without / with 500 µM vanadate; 0-800 µM in 2% DMSO; 37 °C; read-out: Km Values [μM] ± SE / OfABCB2
T1 construct: full-length cds (3984 bp, 1327 aa), baculovirus pFBD in Sf9 cells, isolated cell membranes; no tag mentioned
Source text: vanadate-sensitive ATPase assay, phosphate release, Sf9 membranes on OfABCB2

OfABCB1 = conditions: read-out: Km Values [μM] ± SE / OfABCB1; substrate-stimulated ATPase; difference without / with 500 µM vanadate; 0-800 µM in 2% DMSO; 37 °C
Source text: vanadate-sensitive ATPase assay, phosphate release, Sf9 membranes on OfABCB1

Compound	Km (OfABCB2) [µM]	Km (OfABCB1) [µM]
C[C@@H]1O[C@@H](O[C@H]2C[C@@H](O)[C@]3(CO)[C@H]4[C@H](O)C[C@]5(C)[C@@H](C6=CC(=O)OC6)CC[C@]5(O)[C@@H]4CC[C@]3(O)C2)[C@H](O)[C@H](O)[C@H]1O [ouabain]	7.05 ± 2.61	–
C[C@H]1O[C@@H](O[C@H]2[C@@H](O)C[C@H](O[C@H]3[C@@H](O)C[C@H](O[C@H]4CC[C@@]5(C)[C@H](CC[C@@H]6[C@@H]5C[C@@H](O)[C@]5(C)[C@@H](C7=CC(=O)OC7)CC[C@]65O)C4)O[C@@H]3C)O[C@@H]2C)C[C@H](O)[C@@H]1O [digoxin]	9.33 ± 2.43	33.7 ± 11.4
